Laboratory results published in patent US12282021B2, “Stratification of acute myeloid leukaemia patients for sensitivity to kinase pathway inhibitor therapy” (KINOMICA LIMITED, priority 2017, dated 2025).

Test system: AML primary cells
Test: Viability assay: ex-vivo drug testing of AML primary cells with kinase inhibitors (Guava ViaCount, 72h)
Type: cell-based, human
Settings: for AML cases whose viability was reduced by >50% relative to DMSO control / number of AML cases whose viability was reduced by >50% relative to DMSO control / sensitivity of M4-Like and CDs+ cases versus M1-Like and CDs− cases (cell viability): 72h; for AML cases whose viability was reduced by >50% relative to DMSO control / number of AML cases whose viability was reduced by >50% relative to DMSO control: ex vivo; for sensitivity of M4-Like and CDs+ cases versus M1-Like and CDs− cases (cell viability): 1 μM PAKi, 10 μM FLT3/PKCi (FIG. 5A-B)
Procedure: The study was performed in 36 randomly selected primary samples of mononuclear cells extracted from the peripheral blood of AML patients at diagnosis. Experiments were performed as described below to determine the in vitro viability of the cells in response to treatment with inhibitors of the kinases FLT3/PKC (midostaurin, FLT3/PKCi), PAK (PF-3758309 PAKi), CK2 (silmitasertib CK2i) and MEK (trametinib, MEKi) The P38 inhibitor (P38i) TAK-715 was included as a negative control. Cells obtained from of 36 AML patients with well annotated clinical data were treated with these compounds for 72h.
The study was performed in 36 primary samples of mononuclear cells extracted from the peripheral blood of AML patients at diagnosis. Samples were randomly selected from the BCI tissue bank collection. Initially, 45 samples were included in the study but nine were later excluded because these were not viable in the ex-vivo experiments. Material availability allowed proteomics and mass cytometry analysis of 30 samples and DNA sequencing of 27 samples. Ex-vivo drug testing was performed in quadruplicate sampling replicates and viability values averaged and expressed relative to vehicle control.
Ex-vivo drug testing of AML primary cells was as previously described in Casado P, Rodriguez-Prados J C, Cosulich S C, et al. Kinase-substrate enrichment analysis provides insights into the heterogeneity of signaling pathway activation in leukemia cells. Sci Signal. 2013; 6(268):rs6. Briefly, cells were re-suspended in MS-5 conditioned IMDM medium, seeded in 96 well plates and treated with vehicle or 1 to 10000 nM of the indicated inhibitors for 72h. Cells were stained with Guava ViaCount reagent and cell number and viability was measured. Flow cytometry data were analyzed using CytoSoft (v2.5.7).
Mass cytometry was used to simultaneously measure the surface expression of 17 differentiation markers (CD3, CD7, CD11b, CD14, CD15, CD16, CD19, CD33, CD34, CD38, CD44, CD45, CD64, CD117, CD123, CD184, HLA-DR) in mononuclear cells extracted from the peripheral blood of 30 AML patients. Label free quantitative phosphoproteomics based on TiO2 phosphoenrichment was used to quantify>5,000 phosphorylation sites in the same AML primary samples and KSEA technology was applied to infer kinase activity from the phosphoproteomics data. Gene ontology enrichment was calculated based on the genes that code for the proteins where the phosphorylation sites were detected using DAVID software. Guava EasyCyte Flow Cytometry was used to determine cell viability after the treatment of the same patient samples with 5 kinase inhibitors (PF-3758309, Midostaurin, silmitasertib, trametinib and TAK715 aiming to target the kinases PAK, Flt-3, Casein Kinase 2, MEK and P38, respectively).

[1] = 15 cases positive for RAS/MEK/ERK activation

Row | Compound | potency relative to the other compounds tested (1 μM dose, 36 AML cases) | AML cases whose viability was reduced by >50% relative to DMSO control (1 μM dose, 36 AML cases) [%] | number of AML cases whose viability was reduced by >50% relative to DMSO control (1 μM dose, 36 AML cases) | sensitivity of M4-Like and CDs+ cases versus M1-Like and CDs− cases (cell viability) | cases positive for RAS/MEK/ERK activation that showed high responses [1] [%] | number of cases positive for RAS/MEK/ERK activation that showed high responses [1] | effect of FLT3-ITD status on the responses of cells (FIG. 7F and FIG. 14B) | sensitivity of samples positive for either CDs or phosphorylation on GSK3A or PCKδ versus other cases (FIG. 7F and FIG. 14B)
1 | Cc1nc(Nc2[nH]nc3c2CN(C(=O)N[C@H](CN(C)C)c2ccccc2)C3(C)C)c2sccc2n1 [PAKi, PF-3758309] | most potent of all the compounds tested | 50 | 18/36 | more sensitive |  |  |  | 
2 | CCc1nc(-c2cccc(C)c2)c(-c2ccnc(NC(=O)c3ccccc3)c2)s1 [P38i, TAK-715] |  | 8 | 3 AML cases | no differences |  |  |  | 
3 | O=C(O)c1ccc2c(c1)nc(Nc1cccc(Cl)c1)c1ccncc12 [CK2i, silmitasertib] |  | 22 | 8/36 |  |  |  |  | 
4 | CC(=O)Nc1cccc(-n2c(=O)n(C3CC3)c(=O)c3c(Nc4ccc(I)cc4F)n(C)c(=O)c(C)c32)c1 [MEKi, trametinib] |  | 22 | 8/36 |  | ~50 | 7/15 |  | 
5 | CO[C@@H]1[C@H](N(C)C(=O)c2ccccc2)C[C@H]2O[C@]1(C)n1c3ccccc3c3c4c(c5c6ccccc6n2c5c31)C(=O)NC4 [FLT3/PKCi, midostaurin] |  | 25 | 9/36 | more sensitive |  |  | did not have an effect | more sensitive
